Results reported in US20160046618A1, “Cyclopropyl Fused Thiazin-2-Amine Compounds as Beta-Secretase Inhibitors and Methods of Use” (AMGEN INC., priority 2014, published 2016).

Columns and labels:
human recombinant BACE2 = human recombinant BACE2 (Homo sapiens (Human), UniProt Q9Y5Z0); test: In vitro enzymatic BACE2 FRET assay; format: biochemical; conditions: read-out: IC50 IP (μM) BACE2 enzyme
Method in brief: (§1)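 Tris addition raises the pH to neutral to stop the reaction before fluorescence is measured at 590 nm emission with 488 nm excitation.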

Recombinant Cat D = Recombinant Cat D (Homo sapiens (Human), UniProt P07339); test: In vitro enzymatic Cathepsin D (Cat D) FRET assay; format: biochemical; conditions: read-out: IC50 IP (μM) CatD
Method in brief: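 Assay pH is 3.5 (0.05 M citrate, 5 mM CHAPS, 10% DMSO final) with Cat D from CHO cells. A 20 nM quenched peptide substrate is cleaved over one hour; the reaction is ended with Tris and read by fluorescence (ex 500, em 580 nm).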

human recombinant BACE1 = human recombinant BACE1 (Homo sapiens (Human), UniProt P56817); test: In vitro enzymatic BACE1 FRET assay; format: biochemical; conditions: read-out: IC50 IP (μM) BACE1 enzyme
Method in brief: as §1

Aβ 40 in rat brain = test: In vivo inhibition of beta-secretase: Aβ40 reduction in rat brain; conditions: 10 mpk, after 4 h
Method in brief: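 Rats were dosed by oral gavage at up to 100 mg/kg in 2% HPMC, 1% Tween80, pH 2.2, with vehicle-only controls. Supernatant Aβ40 was measured by ECL sandwich ELISA with biotinylated-4G8 capture and C-terminal Fab40 detection.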

[1] = test system: Aβ40 in conditioned medium of cells stably expressing Amyloid Precursor Protein (APP); test: In vitro BACE-1 cell-based assay (Aβ40 sandwich ELISA); conditions: read-out: IC50 IP (μM) BACE1 cell
Method in brief: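 Read-out: time-resolved fluorescence (Streptavidin-Europium) of Aβ40 captured by pAb40 and detected with biotinylated 6E10 from supernatants of APP-stable cells. Cells were exposed to compound for 24 h, 10-point dose response, top dose 100 μM or 10 μM, 0.1% DMSO. IC50 fitted to percent of control.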

Aβ 40 in rat CSF = test: In vivo inhibition of beta-secretase: Aβ40 reduction in rat CSF; conditions: 10 mpk, after 4 h
Method in brief: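 Male Sprague Dawley rats (200 g) dosed orally in 2% HPMC, 1% Tween80, pH 2.2, at 3, 10 or 30 mg/kg; CSF and brain taken 4 h later. Brain homogenate centrifuged at 355,000 g; Aβ40 measured by ECL sandwich ELISA (4G8 capture, Abeta40 C-terminal Fab detection), as % reduction versus vehicle controls.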

human recombinant BACE1, sequence (P56817 46-501): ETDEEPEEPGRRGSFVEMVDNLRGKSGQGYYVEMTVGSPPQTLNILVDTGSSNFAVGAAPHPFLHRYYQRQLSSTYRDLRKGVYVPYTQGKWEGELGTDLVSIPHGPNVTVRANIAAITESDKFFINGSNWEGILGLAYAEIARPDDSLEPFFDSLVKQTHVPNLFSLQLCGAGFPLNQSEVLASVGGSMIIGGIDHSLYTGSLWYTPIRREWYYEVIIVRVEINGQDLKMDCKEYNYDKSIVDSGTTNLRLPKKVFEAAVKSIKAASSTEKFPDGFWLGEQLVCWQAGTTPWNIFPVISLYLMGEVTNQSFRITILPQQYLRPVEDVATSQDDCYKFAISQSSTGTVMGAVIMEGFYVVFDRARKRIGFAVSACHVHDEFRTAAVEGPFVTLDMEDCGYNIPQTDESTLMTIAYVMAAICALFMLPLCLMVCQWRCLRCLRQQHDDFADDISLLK
human recombinant BACE2, sequence (Q9Y5Z0 63-518): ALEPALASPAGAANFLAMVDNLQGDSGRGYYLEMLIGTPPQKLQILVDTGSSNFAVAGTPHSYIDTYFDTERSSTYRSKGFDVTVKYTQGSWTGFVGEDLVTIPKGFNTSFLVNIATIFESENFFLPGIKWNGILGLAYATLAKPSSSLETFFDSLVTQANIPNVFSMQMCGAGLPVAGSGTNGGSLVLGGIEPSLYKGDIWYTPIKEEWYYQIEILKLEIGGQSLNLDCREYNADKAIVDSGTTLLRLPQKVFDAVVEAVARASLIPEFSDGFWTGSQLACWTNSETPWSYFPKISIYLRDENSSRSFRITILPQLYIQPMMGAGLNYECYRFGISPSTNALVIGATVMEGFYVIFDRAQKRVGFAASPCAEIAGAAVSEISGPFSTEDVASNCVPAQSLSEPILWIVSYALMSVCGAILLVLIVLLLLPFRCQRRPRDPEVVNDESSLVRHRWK
Recombinant Cat D, sequence (P07339 65-412): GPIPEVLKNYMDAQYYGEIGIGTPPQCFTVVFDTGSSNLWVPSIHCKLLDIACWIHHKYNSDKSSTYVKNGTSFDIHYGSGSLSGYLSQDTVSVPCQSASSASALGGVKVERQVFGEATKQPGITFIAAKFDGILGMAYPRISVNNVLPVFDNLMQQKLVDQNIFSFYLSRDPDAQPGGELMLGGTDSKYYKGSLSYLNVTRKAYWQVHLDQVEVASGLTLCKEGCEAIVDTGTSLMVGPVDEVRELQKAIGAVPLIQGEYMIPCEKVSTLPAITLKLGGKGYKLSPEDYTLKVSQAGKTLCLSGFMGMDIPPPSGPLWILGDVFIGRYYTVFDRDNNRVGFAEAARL

C#CCOc1cnc2c(Nc3cc(F)c(F)c([C@@]4(C)N=C(N)S[C@@]5(COC)C[C@H]54)c3)nccc2n1 [Example 627, N-(3-((1S,5S,6S)-3-amino-1-(methoxymethyl)-5-methyl-2-thia-4-azabicyclo[4.1.0]hept-3-en-5-yl)-4,5-difluorophenyl)-2-(2-propyn-1-yloxy)pyrido[3,4-b]pyrazin-5-amine] gave an IC50 (human recombinant BACE2) of 0.0384 µM, an IC50 (Recombinant Cat D) of 1390 µM and an IC50 (human recombinant BACE1) of 0.00114 µM. The “% Aβ 40 reduction in rat brain at 10 mpk” value (Aβ 40 in rat brain) was 50%, the IC50 [1] was 0.00428 µM and the “% Aβ 40 reduction in rat CSF at 10 mpk” value (Aβ 40 in rat CSF) was 59%.

Molecule COC[C@]12C[C@H]1[C@@](C)(c1cc(Nc3nccc4nc(OCc5cocn5)cnc34)cc(F)c1F)N=C(N)S2 [Example 628, N-(3-((1S,5S,6S)-3-amino-1-(methoxymethyl)-5-methyl-2-thia-4-azabicyclo[4.1.0]hept-3-en-5-yl)-4,5-difluorophenyl)-2-(1,3-oxazol-4-ylmethoxy)pyrido[3,4-b]pyrazin-5-amine] has an IC50 (human recombinant BACE2) of 0.0383 µM, an IC50 (Recombinant Cat D) of 443 µM and an IC50 (human recombinant BACE1) of 0.00324 µM. For the same molecule, the “% Aβ 40 reduction in rat brain at 10 mpk” value (Aβ 40 in rat brain) was 50%, the IC50 [1] was 0.0148 µM and the “% Aβ 40 reduction in rat CSF at 10 mpk” value (Aβ 40 in rat CSF) was 59%.

Molecule COC[C@]12C[C@H]1[C@@](C)(c1cc(Nc3nccc4nc(OCc5ncco5)cnc34)cc(F)c1F)N=C(N)S2 [Example 631, N-(3-((1S,5S,6S)-3-amino-1-(methoxymethyl)-5-methyl-2-thia-4-azabicyclo[4.1.0]hept-3-en-5-yl)-4,5-difluorophenyl)-2-(1,3-oxazol-2-ylmethoxy)pyrido[3,4-b]pyrazin-5-amine] has an IC50 (human recombinant BACE2) of 0.055 µM, an IC50 (Recombinant Cat D) of 475 µM and an IC50 (human recombinant BACE1) of 0.00173 µM. The “% Aβ 40 reduction in rat brain at 10 mpk” value (Aβ 40 in rat brain) was 47%, the IC50 [1] was 0.00325 µM and the “% Aβ 40 reduction in rat CSF at 10 mpk” value (Aβ 40 in rat CSF) was 52%.

Cc1cc(OCc2ncco2)cnc1C(=O)Nc1cc(F)c(F)c([C@@]2(C)N=C(N)S[C@@]3(CF)C[C@H]32)c1 [Example 645, N-(3-((1S,5S,6S)-3-amino-1-(fluoromethyl)-5-methyl-2-thia-4-azabicyclo[4.1.0]hept-3-en-5-yl)-4,5-difluorophenyl)-3-methyl-5-(1,3-oxazol-2-ylmethoxy)-2-pyridinecarboxamide] gave an IC50 (human recombinant BACE2) of 0.143 µM, an IC50 (Recombinant Cat D) of 477 µM and an IC50 (human recombinant BACE1) of 0.00337 µM. The “% Aβ 40 reduction in rat brain at 10 mpk” value (Aβ 40 in rat brain) was 34%, the IC50 [1] was 0.0246 µM and the “% Aβ 40 reduction in rat CSF at 10 mpk” value (Aβ 40 in rat CSF) was 53%.

For C#CCOc1cnc2c(Nc3cnc(F)c([C@@]4(C)N=C(N)S[C@@]5([C@@H](O)C(F)(F)F)C[C@H]54)c3)nccc2n1 [Example 660, (1S)-1-((1S,5S,6S)-3-amino-5-(2-fluoro-5-((2-(2-propyn-1-yloxy)pyrido[3,4-b]pyrazin-5-yl)amino)-3-pyridinyl)-5-methyl-2-thia-4-azabicyclo[4.1.0]hept-3-en-1-yl)-2,2,2-trifluoroethanol], the IC50 (human recombinant BACE2) was 0.0235 µM, the IC50 (Recombinant Cat D) was 554 µM and the IC50 (human recombinant BACE1) was 0.00133 µM. For the same molecule, the “% Aβ 40 reduction in rat brain at 10 mpk” value (Aβ 40 in rat brain) was 26%, the IC50 [1] was 0.00345 µM and the “% Aβ 40 reduction in rat CSF at 10 mpk” value (Aβ 40 in rat CSF) was 38%.

For C#CCOc1cnc2c(Nc3cnc(F)c([C@@]4(C)N=C(N)S[C@@]5(CO)C[C@H]54)c3)nccc2n1 [Example 662, ((1S,5S,6S)-3-amino-5-(2-fluoro-5-((2-(2-propyn-1-yloxy)pyrido[3,4-b]pyrazin-5-yl)amino)-3-pyridinyl)-5-methyl-2-thia-4-azabicyclo[4.1.0]hept-3-en-1-yl)methanol], the IC50 (human recombinant BACE2) was 0.0199 µM, the IC50 (Recombinant Cat D) was 1060 µM and the IC50 (human recombinant BACE1) was 0.000437 µM. The “% Aβ 40 reduction in rat brain at 10 mpk” value (Aβ 40 in rat brain) was 37%, the IC50 [1] was 0.00049 µM and the “% Aβ 40 reduction in rat CSF at 10 mpk” value (Aβ 40 in rat CSF) was 40%.

Molecule Cc1cc(OCC(F)(F)F)cnc1C(=O)Nc1cc(F)c(F)c([C@@]2(C)N=C(N)S[C@@]3(CF)C[C@H]32)c1 [Example 678, N-(3-((1S,5S,6S)-3-amino-1-(fluoromethyl)-5-methyl-2-thia-4-azabicyclo[4.1.0]hept-3-en-5-yl)-4,5-difluorophenyl)-3-methyl-5-(2,2,2-trifluoroethoxy)-2-pyridinecarboxamide] has an IC50 (human recombinant BACE2) of 0.579 µM, an IC50 (Recombinant Cat D) of 747 µM and an IC50 (human recombinant BACE1) of 0.00612 µM. For the same molecule, the “% Aβ 40 reduction in rat brain at 10 mpk” value (Aβ 40 in rat brain) was 11%, the IC50 [1] was 0.0286 µM and the “% Aβ 40 reduction in rat CSF at 10 mpk” value (Aβ 40 in rat CSF) was 40%.

Work on Cc1cc(OCC(F)(F)F)cnc1C(=O)Nc1cc(F)c(F)c([C@@]2(C)N=C(N)S[C@@]3(C(F)F)C[C@@H]23)c1 [Example 679, N-(3-((1S,5S,6S)-3-amino-1-(difluoromethyl)-5-methyl-2-thia-4-azabicyclo[4.1.0]hept-3-en-5-yl)-4,5-difluorophenyl)-3-methyl-5-(2,2,2-trifluoroethoxy)-2-pyridinecarboxamide] yielded an IC50 (human recombinant BACE2) of 0.746 µM, an IC50 (Recombinant Cat D) of 375 µM and an IC50 (human recombinant BACE1) of 0.00435 µM. The “% Aβ 40 reduction in rat brain at 10 mpk” value (Aβ 40 in rat brain) was 6%, the IC50 [1] was 0.0495 µM and the “% Aβ 40 reduction in rat CSF at 10 mpk” value (Aβ 40 in rat CSF) was 20%.

Cc1cc(OCC(F)(F)F)cnc1C(=O)Nc1ccc(F)c([C@@]2(C)N=C(N)S[C@@]3(C(F)F)C[C@@H]23)c1 [Example 680, N-(3-((1S,5S,6S)-3-amino-1-(difluoromethyl)-5-methyl-2-thia-4-azabicyclo[4.1.0]hept-3-en-5-yl)-4-fluorophenyl)-3-methyl-5-(2,2,2-trifluoroethoxy)-2-pyridinecarboxamide] showed an IC50 (human recombinant BACE2) of 0.846 µM, an IC50 (Recombinant Cat D) of 1110 µM and an IC50 (human recombinant BACE1) of 0.0139 µM. For the same molecule, the “% Aβ 40 reduction in rat brain at 10 mpk” value (Aβ 40 in rat brain) was 8%, the IC50 [1] was 0.0153 µM and the “% Aβ 40 reduction in rat CSF at 10 mpk” value (Aβ 40 in rat CSF) was 30%.

In the case of Cc1cc(OCC(F)(F)F)cnc1C(=O)Nc1ccc(F)c([C@@]2(C)N=C(N)S[C@@]3(CF)C[C@H]32)c1 [Example 689, N-(3-((1S,5S,6S)-3-amino-1-(fluoromethyl)-5-methyl-2-thia-4-azabicyclo[4.1.0]hept-3-en-5-yl)-4-fluorophenyl)-3-methyl-5-(2,2,2-trifluoroethoxy)-2-pyridinecarboxamide], the IC50 (human recombinant BACE2) is reported as 0.819 µM, the IC50 (Recombinant Cat D) is reported as > 400 µM and the IC50 (human recombinant BACE1) is reported as 0.0105 µM. For the same molecule, the “% Aβ 40 reduction in rat brain at 10 mpk” value (Aβ 40 in rat brain) was 10%, the IC50 [1] was 0.0464 µM and the “% Aβ 40 reduction in rat CSF at 10 mpk” value (Aβ 40 in rat CSF) was 38%.

For C[C@]1(c2cc(NC(=O)c3ccc(OCC(F)(F)F)cn3)ccc2F)N=C(N)S[C@@]2(CF)C[C@H]21 [Example 697, N-(3-((1S,5S,6S)-3-amino-1-(fluoromethyl)-5-methyl-2-thia-4-azabicyclo[4.1.0]hept-3-en-5-yl)-4-fluorophenyl)-5-(2,2,2-trifluoroethoxy)-2-pyridinecarboxamide], the IC50 (human recombinant BACE2) was 0.338 µM, the IC50 (Recombinant Cat D) was > 400 µM and the IC50 (human recombinant BACE1) was 0.00629 µM. The “% Aβ 40 reduction in rat brain at 10 mpk” value (Aβ 40 in rat brain) was 13%, the IC50 [1] was 0.0315 µM and the “% Aβ 40 reduction in rat CSF at 10 mpk” value (Aβ 40 in rat CSF) was 35%.

For COC[C@]12C[C@H]1[C@@](C)(c1cc(NC(=O)c3ccc(OCC(F)(F)F)cn3)ccc1F)N=C(N)S2 [Example 698, N-(3-((1S,5S,6S)-3-amino-1-(methoxymethyl)-5-methyl-2-thia-4-azabicyclo[4.1.0]hept-3-en-5-yl)-4-fluorophenyl)-5-(2,2,2-trifluoroethoxy)-2-pyridinecarboxamide], the IC50 (human recombinant BACE2) was 0.316 µM, the IC50 (Recombinant Cat D) was > 400 µM and the IC50 (human recombinant BACE1) was 0.0086 µM. For the same molecule, the “% Aβ 40 reduction in rat brain at 10 mpk” value (Aβ 40 in rat brain) was −7%, the IC50 [1] was 0.0116 µM and the “% Aβ 40 reduction in rat CSF at 10 mpk” value (Aβ 40 in rat CSF) was 15%.

In the case of C[C@]1(c2cc(Nc3nccc4nc(OCc5ncco5)cnc34)ccc2F)N=C(N)S[C@]2(CO)[C@H]1C2(F)F [Example 705, ((1S,5S,6R)-3-amino-7,7-difluoro-5-(2-fluoro-5-((2-(1,3-oxazol-2-ylmethoxy)pyrido[3,4-b]pyrazin-5-yl)amino)phenyl)-5-methyl-2-thia-4-azabicyclo[4.1.0]hept-3-en-1-yl)methanol], the IC50 (human recombinant BACE2) is reported as 0.0184 µM, the IC50 (Recombinant Cat D) is reported as 183 µM and the IC50 (human recombinant BACE1) is reported as 0.00186 µM. The “% Aβ 40 reduction in rat brain at 10 mpk” value (Aβ 40 in rat brain) was 1%, the IC50 [1] was 0.0035 µM and the “% Aβ 40 reduction in rat CSF at 10 mpk” value (Aβ 40 in rat CSF) was 28%.
